Data: patent publication US20230286970A1, “NOVEL OXADIAZOLE-BASED SELECTIVE HDAC6 INHIBITORS” (ITALFARMACO S.P.A., priority 2020, published 2023)

How the values were obtained:
Stability in rat plasma = settings: after 4 hours, 37° C.
Method: In order to evaluate the stability to circulating enzymes, test compounds were incubated in human and rat plasma at 37° C. in a thermostated oscillating bath. Each test compound was incubated at μM concentration (50 μM when the samples were analysed by UV/HPLC, 1 or 2 μM when the samples were analysed by LC-MS/MS) for 0, 15, 30 minutes and 1, 2 and 4 hours. The reaction was stopped placing samples on ice bath and adding acidified acetonitrile. After centrifugation (10 minutes at 14000 rpm) an aliquot of the supernatant was diluted with water, filtered with 0.45 μm regenerated cellulose syringe filters and injected in HPLC-UV or in LC-MS/MS. The percentage of the remaining amount at the various incubation times with respect to the initial amount were calculated. The half-life in plasma was also calculated.

recombinant human HDAC1 = recombinant human HDAC1 (Homo sapiens (Human), UniProt Q13547); assay: Enzymatic screening, HDAC1 inhibition (fluorogenic FdL_G substrate); type: biochemical
Summary of the method: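 Recombinant human HDAC1 inhibition was measured fluorometrically using the FLUOR DE LYS-Green (FdL_G) substrate. Compounds at 8 doses (1% DMSO final) in Tris-HCl pH 8 buffer with NaCl, Tween-20 and glycerol were preincubated in triplicate with enzyme and 1 mg/mL BSA, then given substrate. Developer I plus 2 μM TSA was added, and fluorescence read after 25 minutes in the dark.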

[1] = Stability to Phase I metabolism in rat S9 liver fraction; settings: after 90 minutes, 37° C.
[2] = Stability to Phase I metabolism in human S9 liver fraction; settings: after 90 minutes, 37° C.
recombinant human HDAC6 = recombinant human HDAC6 (Homo sapiens (Human), UniProt Q9UBN7); assay: Enzymatic screening, HDAC6 inhibition (fluorogenic FdL_G substrate); type: biochemical
Chain of recombinant human HDAC6 (Q9UBN7 whole entry): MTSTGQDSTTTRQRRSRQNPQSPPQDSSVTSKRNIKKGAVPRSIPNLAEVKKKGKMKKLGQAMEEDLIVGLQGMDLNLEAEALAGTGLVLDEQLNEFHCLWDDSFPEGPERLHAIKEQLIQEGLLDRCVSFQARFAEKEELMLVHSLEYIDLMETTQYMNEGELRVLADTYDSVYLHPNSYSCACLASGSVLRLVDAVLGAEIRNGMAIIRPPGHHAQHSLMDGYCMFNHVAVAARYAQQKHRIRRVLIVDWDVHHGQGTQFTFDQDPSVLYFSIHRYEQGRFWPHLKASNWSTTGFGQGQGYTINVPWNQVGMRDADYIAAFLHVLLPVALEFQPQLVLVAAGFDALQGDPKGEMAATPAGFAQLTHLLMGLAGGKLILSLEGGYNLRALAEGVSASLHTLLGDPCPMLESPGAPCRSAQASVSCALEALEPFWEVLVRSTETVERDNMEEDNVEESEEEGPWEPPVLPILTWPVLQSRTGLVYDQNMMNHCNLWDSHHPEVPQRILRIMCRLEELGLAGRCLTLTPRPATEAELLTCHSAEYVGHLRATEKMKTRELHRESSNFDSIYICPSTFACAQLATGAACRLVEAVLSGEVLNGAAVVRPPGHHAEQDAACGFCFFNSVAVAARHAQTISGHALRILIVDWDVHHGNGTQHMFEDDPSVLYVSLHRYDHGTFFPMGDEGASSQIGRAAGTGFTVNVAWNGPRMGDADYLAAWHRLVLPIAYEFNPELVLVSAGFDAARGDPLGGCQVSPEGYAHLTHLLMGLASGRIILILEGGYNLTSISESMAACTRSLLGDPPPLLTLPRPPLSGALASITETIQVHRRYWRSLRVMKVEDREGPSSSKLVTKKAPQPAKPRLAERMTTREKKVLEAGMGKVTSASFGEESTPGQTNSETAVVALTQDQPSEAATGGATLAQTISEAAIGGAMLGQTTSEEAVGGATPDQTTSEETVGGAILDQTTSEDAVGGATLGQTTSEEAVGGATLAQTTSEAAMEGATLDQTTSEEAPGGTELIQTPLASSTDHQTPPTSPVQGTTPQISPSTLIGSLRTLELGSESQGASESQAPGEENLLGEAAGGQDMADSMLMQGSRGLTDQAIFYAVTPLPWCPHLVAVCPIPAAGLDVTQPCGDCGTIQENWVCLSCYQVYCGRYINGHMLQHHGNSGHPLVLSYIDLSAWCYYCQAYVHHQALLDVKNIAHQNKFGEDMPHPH
Summary of the method: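 Enzyme was preincubated with compound (8 doses, triplicate, 1% DMSO) in 25 mM Tris-HCl pH 8, 130 mM NaCl, 0.05% Tween-20, 10% glycerol, with BSA. A FLUOR DE LYS-Green substrate was then added, and fluorescence was read after developer plus 2 μM TSA.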

[3] = Stability in human plasma; settings: after 4 hours, 37° C.

Chain of recombinant human HDAC1 (Q13547 whole entry): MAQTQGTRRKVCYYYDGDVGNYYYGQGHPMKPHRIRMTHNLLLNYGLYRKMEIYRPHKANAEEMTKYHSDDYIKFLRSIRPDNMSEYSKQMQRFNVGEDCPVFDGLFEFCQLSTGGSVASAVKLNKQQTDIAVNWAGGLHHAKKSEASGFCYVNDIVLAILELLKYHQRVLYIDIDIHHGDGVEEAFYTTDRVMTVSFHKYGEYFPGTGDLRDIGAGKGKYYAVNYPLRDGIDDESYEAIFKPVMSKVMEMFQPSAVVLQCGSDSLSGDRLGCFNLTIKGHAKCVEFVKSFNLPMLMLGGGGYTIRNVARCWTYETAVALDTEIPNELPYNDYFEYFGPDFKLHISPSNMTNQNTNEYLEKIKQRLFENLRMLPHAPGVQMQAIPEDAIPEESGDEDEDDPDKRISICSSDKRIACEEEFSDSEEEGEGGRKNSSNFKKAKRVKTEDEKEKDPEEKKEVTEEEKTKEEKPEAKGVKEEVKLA

Compound | residual percentage in RAT PLASMA (Stability in rat plasma) | IC50 (recombinant human HDAC1) | residual percentage in RAT S9 FRACTION [1] | residual percentage in HUMAN S9 FRACTION [2] | IC50 (recombinant human HDAC6) | residual percentage in HUMAN PLASMA [3]
Nc1nc2ccc(-c3cn(Cc4ccc(-c5nnc(C(F)F)o5)cn4)nn3)cc2[nH]1 [Compd. 30, 6-(1-((5-(5-(difluoromethyl)-1,3,4-oxadiazol-2-yl)pyridin-2-yl)methyl)-1H-1,2,3-triazol-4-yl)-1H-benzo[d]imidazol-2-amine] | 68% | > 200000 nM | 96% | 80% | 10 nM | 87%
CC(c1ccc(-c2nnc(C(F)F)o2)cn1)n1cc(-c2ccc(N)nc2)nn1 (stereo not drawn) [Compd. 59, 5-(1-(1-(5-(5-(difluoromethyl)-1,3,4-oxadiazol-2-yl)pyridin-2-yl)ethyl)-1H-1,2,3-triazol-4-yl)pyridin-2-amine] | 83% | > 200000 nM | 97% | 98% | 24 nM | 87%
CS(=O)(=O)NCCC(c1ccc(-c2nnc(C(F)F)o2)cc1)c1cn(-c2ccc(N)nc2)nn1 (stereo not drawn) [Compd. 62, N-{3-[1-(6-aminopyridin-3-yl)-1H-1,2,3-triazol-4-yl]-3-{4-[5-(difluoromethyl)-1,3,4-oxadiazol-2-yl]phenyl}propyl}methanesulfonamide] | 69% | > 200000 nM | 86% | 95% | 27 nM | 88%
O=C(Nc1ccc(-c2nnc(Cc3ccc(-c4nnc(C(F)F)o4)cn3)s2)cn1)C(F)F [Compd. 102, N-(5-(5-((5-(5-(difluoromethyl)-1,3,4-oxadiazol-2-yl)pyridin-2-yl)methyl)-1,3,4-thiadiazol-2-yl)pyridin-2-yl)-2,2-difluoroacetamide] | 90% | > 200000 nM | 56% | 82% | 39 nM | 92%
CC(c1ccc(-c2nnc(C(F)F)o2)cc1)n1cc(-c2ccc(N)nc2)nn1 (stereo not drawn) [Compd. 117, 5-(1-(1-(4-(5-(difluoromethyl)-1,3,4-oxadiazol-2-yl)phenyl)ethyl)-1H-1,2,3-triazol-4-yl)pyridin-2-amine] | 74% | > 200000 nM | 71% | 93% | 44 nM | 92%
FC(F)c1nnc(-c2ccc(Cn3cc(-c4ccc5[nH]c(N6CCOCC6)nc5c4)nn3)cc2)o1 [Compd. 174, 4-(5-(1-(4-(5-(difluoromethyl)-1,3,4-oxadiazol-2-yl)benzyl)-1H-1,2,3-triazol-4-yl)-1H-benzo[d]imidazol-2-yl)morpholine] | 80% | > 200000 nM | 72% | 91% | 87 nM | 88%
Nc1ccc(-c2nnc(Cc3ccc(-c4nnc(C(F)F)o4)cc3)o2)cn1 [Compd. 218, 5-(5-(4-(5-(difluoromethyl)-1,3,4-oxadiazol-2-yl)benzyl)-1,3,4-oxadiazol-2-yl)pyridin-2-amine] | 69% | > 200000 nM | 89% | 86% | 156 nM | 92%
CCNc1nc2ccc(-c3cn(Cc4ccc(-c5nnc(C(F)F)o5)cc4)nn3)cc2[nH]1 [compd. 60, 6-(1-(4-(5-(difluoromethyl)-1,3,4-oxadiazol-2-yl)benzyl)-1H-1,2,3-triazol-4-yl)-N-ethyl-1H-benzo[d]imidazol-2-amine] | 81% | 32900 nM | 94% | 70% | 26 nM | 76%
FC(F)c1nnc(-c2ccc(Cn3cc(-c4ccc(NC5=NCCN5)cc4)cn3)nc2)o1 [compd. 270, N-(4-(1-((5-(5-(difluoromethyl)-1,3,4-oxadiazol-2-yl)pyridin-2-yl)methyl)-1H-pyrazol-4-yl)phenyl)-4,5-dihydro-1H-imidazol-2-amine] | 78% | > 200000 nM | 79% | 93% | 18 nM | 89%
O=C1Nc2ccc(-c3cn(Cc4ccc(-c5nnc(C(F)F)o5)cn4)nn3)cc2C12CCNC2 (stereo not drawn) [compound 28, 5-(1-((5-(5-(difluoromethyl)-1,3,4-oxadiazol-2-yl)pyridin-2-yl)methyl)-1H-1,2,3-triazol-4-yl)spiro[indoline-3,3′-pyrrolidin]-2-one] | 64% | > 200000 nM | 97% | 98% | 13 nM | 74%
O=C1Nc2ccc(-c3cn(Cc4ccc(-c5nnc(C(F)F)o5)cn4)nn3)cc2NC12CCNCC2 [compound 36] | 76% | > 200000 nM | 94% | 89% | 16 nM | 78%
CC(=O)Nc1cccc(-c2cn(Cc3ccc(-c4nnc(C(F)F)o4)cn3)nn2)c1 [compound 37, N-(3-(1-((5-(5-(difluoromethyl)-1,3,4-oxadiazol-2-yl)pyridin-2-yl)methyl)-1H-1,2,3-triazol-4-yl)phenyl)acetamide] | 83% | > 200000 nM | 78% | 71% | 17 nM | 90%
Nc1ccc(-c2cn(Cc3cc(F)c(-c4nnc(C(F)F)o4)cc3F)nn2)cn1 [compound 39, 5-(1-(4-(5-(difluoromethyl)-1,3,4-oxadiazol-2-yl)-2,5-difluorobenzyl)-1H-1,2,3-triazol-4-yl)pyridin-2-amine] | 71% | > 200000 nM | 96% | 100% | 18 nM | 83%
NC(=O)c1cccc(-c2nnn(Cc3ccc(-c4nnc(C(F)F)o4)cc3F)n2)c1 [compound 50, 3-(2-(4-(5-(difluoromethyl)-1,3,4-oxadiazol-2-yl)-2-fluorobenzyl)-2H-tetrazol-5-yl)benzamide] | 87% | > 200000 nM | 66% | 95% | 22 nM | 89%
COc1ncccc1-c1cn(Cc2ccc(-c3nnc(C(F)F)o3)cn2)nn1 [compound 53, 2-(difluoromethyl)-5-(6-((4-(2-methoxypyridin-3-yl)-1H-1,2,3-triazol-1-yl)methyl)pyridin-3-yl)-1,3,4-oxadiazole] | 78% | > 200000 nM | 91% | 88% | 23 nM | 77%
Nc1ccc(-c2nnn(Cc3ccc(-c4nnc(C(F)F)o4)cc3)n2)cn1 [compound 64, 5-(2-(4-(5-(difluoromethyl)-1,3,4-oxadiazol-2-yl)benzyl)-2H-tetrazol-5-yl)pyridin-2-amine] | 70% | > 200000 nM | 9% | 103% | 28 nM | 69%
Cc1ncc(-c2nnn(Cc3ccc(-c4nnc(C(F)F)o4)cc3)n2)cc1N [compound 65, 5-(2-(4-(5-(difluoromethyl)-1,3,4-oxadiazol-2-yl)benzyl)-2H-tetrazol-5-yl)-2-methylpyridin-3-amine] | 76% | > 200000 nM | 35% | 99% | 28 nM | 94%
Fc1cc(-c2nnc(C(F)F)o2)cc(F)c1Cn1cc(-c2cnc3cccnn23)nn1 [compound 67, 2-(3,5-difluoro-4-((4-(imidazo[1,2-b]pyridazin-3-yl)-1H-1,2,3-triazol-1-yl)methyl)phenyl)-5-(difluoromethyl)-1,3,4-oxadiazole] | 74% | > 200000 nM | 39% | 77% | 29 nM | 74%
O=C(c1cccc(-c2nnn(Cc3ccc(-c4nnc(C(F)F)o4)cn3)n2)c1)N1CCOCC1 [compound 69, (3-(2-((5-(5-(difluoromethyl)-1,3,4-oxadiazol-2-yl)pyridin-2-yl)methyl)-2H-tetrazol-5-yl)phenyl)(morpholino)methanone] | 79% | > 200000 nM | 83% | 97% | 30 nM | 79%
